According to PubChem BioAssay AID2060887 (Molecular Pharmacology Branch, DTP, NCI, 2025):

System: 782815-120-R-J1-PDC complex spheroid viability
Test: Anticancer human tumor 782815-120-R-J1-PDC patient-derived colon adenocarcinoma cell line growth inhibition [RAS]
Settings: for IC50: curve of first compound; for viability, T/C: stronger effect = lower value
Method in brief: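 Multi-cell-type spheroids: tumor cells plus HUVEC endothelial cells and mesenchymal stem cells. RAS-pathway inhibitors were combined with targeted agents, each dosed in half-log steps down from clinical Cmax, or from 10 microM when Cmax was unknown.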
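Also: spheroids exposed to compounds for 7 days before reading.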
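For viability, T/C in this document: 100% = DMSO vehicle control viability.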

## CCc1c2c(nc3ccc(O)cc13)-c1cc3c(c(=O)n1C2)COC(=O)[C@]3(O)CC + C#Cc1c(F)ccc2cc(O)cc(-c3ncc4c(N5CC6CCC(C5)N6)nc(OCC56CCCN5CC(F)C6)nc4c3F)c12
Second compound 0.0316 µM
  IC50: 4.66 nM
Second compound 0.1 µM
  IC50: 4.39 nM
Second compound 0.316 µM
  IC50: 4.86 nM
Second compound 1 µM
  IC50: 4.76 nM
Second compound 3.16 µM
  IC50: 4.2 nM
Second compound 10 µM
  IC50: 4.39 nM
Second compound 0.0316 µM, first compound 0.000949 µM
  viability, T/C: 94.9%
Second compound 0.0316 µM, first compound 0.003 µM
  viability, T/C: 67.9%
Second compound 0.0316 µM, first compound 0.00949 µM
  viability, T/C: 20.8%
Second compound 0.0316 µM, first compound 0.03 µM
  viability, T/C: 9.58%
Second compound 0.0316 µM, first compound 0.0949 µM
  viability, T/C: 4.66%
Second compound 0.0316 µM, first compound 0.3 µM
  viability, T/C: 1.46%
Second compound 0.1 µM, first compound 0.000949 µM
  viability, T/C: 98.9%
Second compound 0.1 µM, first compound 0.003 µM
  viability, T/C: 64%
Second compound 0.1 µM, first compound 0.00949 µM
  viability, T/C: 21.4%
Second compound 0.1 µM, first compound 0.03 µM
  viability, T/C: 10.5%
Second compound 0.1 µM, first compound 0.0949 µM
  viability, T/C: 4.8%
Second compound 0.1 µM, first compound 0.3 µM
  viability, T/C: 1.59%
Second compound 0.316 µM, first compound 0.000949 µM
  viability, T/C: 96.9%
Second compound 0.316 µM, first compound 0.003 µM
  viability, T/C: 69.3%
Second compound 0.316 µM, first compound 0.00949 µM
  viability, T/C: 22.6%
Second compound 0.316 µM, first compound 0.03 µM
  viability, T/C: 10.5%
Second compound 0.316 µM, first compound 0.0949 µM
  viability, T/C: 3.58%
Second compound 0.316 µM, first compound 0.3 µM
  viability, T/C: 1.52%
Second compound 1 µM, first compound 0.000949 µM
  viability, T/C: 99.9%
Second compound 1 µM, first compound 0.003 µM
  viability, T/C: 67.4%
Second compound 1 µM, first compound 0.00949 µM
  viability, T/C: 23.6%
Second compound 1 µM, first compound 0.03 µM
  viability, T/C: 9.52%
Second compound 1 µM, first compound 0.0949 µM
  viability, T/C: 3.42%
Second compound 1 µM, first compound 0.3 µM
  viability, T/C: 1.25%
Second compound 3.16 µM, first compound 0.000949 µM
  viability, T/C: 99.3%
Second compound 3.16 µM, first compound 0.003 µM
  viability, T/C: 61.9%
Second compound 3.16 µM, first compound 0.00949 µM
  viability, T/C: 21%
Second compound 3.16 µM, first compound 0.03 µM
  viability, T/C: 8.73%
Second compound 3.16 µM, first compound 0.0949 µM
  viability, T/C: 3.05%
Second compound 3.16 µM, first compound 0.3 µM
  viability, T/C: 1.2%
Second compound 10 µM, first compound 0.000949 µM
  viability, T/C: 102%
Second compound 10 µM, first compound 0.003 µM
  viability, T/C: 64%
Second compound 10 µM, first compound 0.00949 µM
  viability, T/C: 21%
Second compound 10 µM, first compound 0.03 µM
  viability, T/C: 11.2%
Second compound 10 µM, first compound 0.0949 µM
  viability, T/C: 2.93%
Second compound 10 µM, first compound 0.3 µM
  viability, T/C: 0.95%
